Source: the SangsterLogP compilation

Test: method code SF, from Hansch, C. & Leo, A. (1987). Log P database [Dataset]. Pomona College Medicinal Chemistry Project.

| Compound | logP | also measured |
| --- | --- | --- |
| N#CN=[N+]([O-])c1ccc(Br)cc1 | 2.5 | – |
| O=C(O)c1ccco1 | 0.64 | – |
| O=S1(=O)NC=Nc2ccc(Cl)cc21 | 1.07 | – |
| CNC(=O)CSP(=S)(OC)OC | 0.8 | – |
| COCCN(N=Nc1[nH]cnc1C(N)=O)C(C)(C)C | – | logD (pH 4.2): 1.14 |
| COC(=O)CNC(=O)c1ccc(N)cc1 | -0.23 | – |
| O=c1c2ccccc2sc2ccccc12 | 3.99 | – |
| O=S1(=O)N=C(C2CC=CCC2)Nc2ccccc21 (stereo not given) | 2.05 | – |
| O=CNc1cccc([N+](=O)[O-])c1 | – | logD (pH 7.0): 1.4 |
| CCc1ccccc1OCC(=O)O | – | logD (pH 1.0): 2.53 |
| O=C(Nc1ccccc1)c1cc(N2CC2)c([N+](=O)[O-])cc1[N+](=O)[O-] | 2.23 | – |
| CCC1=Nc2cc(Cl)ccc2S(=O)(=O)N1 | 1.61 | – |
| O=C1NC(c2cccc3ccccc23)Nc2ccccc21 (stereo not given) | 2.96 | – |
| c1ccc(CSc2nnc[nH]2)cc1 | 1.45 | – |
| Nc1ccc2cc3ccccc3nc2c1 | 2.19 | – |
| CSSC | 1.77 | – |
| CCCCC1=Nc2ccc(Cl)cc2S(=O)(=O)N1 | 2.52 | – |
| N#CC(=Cc1ccccc1)C(=O)Nc1ccccc1 | 3.41 | – |
| CCCCOc1ccc(C(N)=O)cc1 | 2.48 | – |
| C=C1C(=O)O[C@@H]2/C=C(\C)CC/C=C(\C)CC[C@@H]12 | 2.09 | – |
| COC(=O)c1ccccc1NC(C)=O | 1.65 | – |
| NS(=O)(=O)c1cccc(OC(=O)CNC(=O)c2ccccc2)c1 | 0.84 | – |
| CNC(C)=O | -1.05 | – |
| Cc1cccs1 | 2.33 | – |
| O=c1[nH]nnc2ccccc12 | 0.83 | – |
| CCCCCC(=O)Nc1ccccc1 | 3.28 | – |
| CCC1OC(=O)C(C)C(OC2CC(C)(OC)C(O)C(C)O2)C(C)C(OC2OC(C)CC(N(C)C)C2O)C2(C)CC(C)C3(OC(=O)OC(C3C)C1(C)O)O2 (stereo not given) | 3.11 | – |

| Compound | logP | also measured |
| --- | --- | --- |
| CN(C)C(=O)Nc1ccc([N+](=O)[O-])cc1 | 1.51 | – |
| N#Cc1c(N)sc2ccccc12 | 2.17 | – |
| COC(OC)(OC)c1ccccc1 | – | logD (pH 13.0): 2.27 |
| CN(C)/N=N/c1cccc(Cl)c1 | 3.44 | – |
| CC(=O)Oc1cccc(F)c1 | 1.74 | – |
| CCC(C)NC(=O)/C(Br)=C\c1ccccc1 (stereo not given) | 3.56 | – |
| O=NN(CCCl)C(=O)NC(C(=O)O)C1CCCCC1 (stereo not given) | -0.63 | – |
| CN1CCOCC1 | -0.33 | – |
| Oc1ccc(Nc2ccccc2)cc1 | – | logD (pH 6.4): 2.82 |
| CCCOC(=O)c1cccnc1 | – | logD (pH 7.0): 1.94 |
| CC(=O)C(=Cc1ccc(Cl)cc1)C(C)=O | 2.32 | – |
| O=c1cnn([C@@H]2O[C@H](CO)[C@@H](O)[C@H]2O)c(=O)[nH]1 | -2.14 | – |
| Nc1nc2ccccc2c(=O)[nH]1 | 0.6 | – |
| OCCOc1ccccc1 | 1.16 | – |
| O=C(NC(CO)C(O)c1ccc(NC(=O)C2CC2)cc1)C(Cl)Cl (stereo not given) | 0.75 | – |
| COP(=O)(NCC(C)C)Oc1cc(Cl)c(Cl)cc1Cl (stereo not given) | 3.86 | – |
| CC(=O)CF | -0.39 | – |
| CC(=C(C#N)C#N)c1ccccc1 | 2.1 | – |
| COC1(NC(=O)CSC(F)F)C(=O)N2C(C(=O)OCC(=O)C(C)(C)C)=C(CSC3(C)N=NN=N3)CSC21 (stereo not given) | – | logD (pH 6.8): 2.31 |
| BrCCBr | 1.96 | – |
| O=c1[nH]cc(Cl)c(=O)[nH]1 | -0.35 | – |
| CC1=Nc2ccc([N+](=O)[O-])cc2S(=O)(=O)N1 | 0.65 | – |
| NNc1ccccc1 | – | logD (pH 8.9): 1.25 |
| CNC(=S)NCCSCc1nc[nH]c1C | – | logD (pH 10.8): 0.59 |
| CCOC(=O)C(=Cc1ccccc1[N+](=O)[O-])C(=O)OCC | 2.54 | – |
| CC1(C)N=C(N)N=C(N)N1c1ccc(F)cc1 | – | logD (pH 13.0): 0.37 |
| Cc1ccc(Nc2ccc(O)c3c2C(=O)c2ccccc2C3=O)cc1 | 3.12 | – |

| Compound | logP | also measured |
| --- | --- | --- |
| O=C(CNC(=O)c1ccccc1)Oc1cccc(C(F)(F)F)c1 | 3.3 | – |
| FC(F)(F)Br | 1.86 | – |
| C(=N\c1ccccc1)/c1ccccc1 | 2.82 | – |
| NC(=S)c1ccccc1N | 0.99 | – |
| CCCCC1OC(=O)c2cc(Br)ccc21 (stereo not given) | 4.24 | – |
| OC[C@@H](O)[C@@H](O)CO | -2.29 | – |
| CC(=NO)c1ccsc1 | 1.81 | – |
| C1=CCOC1 | 0.46 | – |
| O=C(O)COc1ccccc1F | – | logD (pH 1.0): 1.39 |
| Sc1ccccc1 | 2.52 | – |
| OC(c1nc2ccccc2[nH]1)C(O)c1nc2ccccc2[nH]1 (stereo not given) | 1.14 | – |
| CC(=O)c1ccccc1C(=O)O | – | logD (pH 1.0): 0.81 |
| c1ccc(-n2cccn2)cc1 | 2.2 | – |
| C=CCN(C)/N=N/c1ccc(C(N)=O)cc1 | 2.09 | – |
| NC(=O)c1ccsc1 | 0.5 | – |
| OCC(O)COc1ccccc1 (stereo not given) | 0.7 | – |
| OC(c1ccccc1)C1CCCCN1 (stereo not given) | 1.28 | – |
| c1ccc(N2CCOCC2)cc1 | 1.36 | – |
| O=[N+]([O-])c1cccc2ncccc12 | 1.86 | – |
| CCOC(=O)C(=Cc1ccccc1)C(C)=O | 2.21 | – |
| CCCCCCCCC1OC(=O)c2ccccc21 (stereo not given) | 3.94 | – |
| COC(OC)OC | – | logD (pH 13.0): 0.25 |
| CCNC(=O)Nc1ccccc1 | 1.64 | – |
| CN(C)/N=N/c1ccccc1 | – | logD (pH 7.4): 2.59 |
| COc1cccc(C)c1 | 2.66 | – |
| Cc1ccc(C(N)=O)cc1 | 1.18 | – |
